Measured values taken from ChEMBL document CHEMBL4152362, “Discovery of DS-6930, a potent selective PPARγ modulator. Part II: Lead optimization” (Bioorg Med Chem, 2018).
≈ marks a conversion by molar mass, not a printed value. Calls of active or inactive are those of the source. The calls are words filed in the database; no cut-off is given here.

Tests used:
[1] = Half life in cynomolgus monkey at 3 mg/kg, po by LC-MS/MS; type: ADME, organism-based, Macaca fascicularis; conditions: in vivo
Hepatocyte [2] = assay: Cytotoxicity against F344/DuCrlCrlj rat primary hepatocytes assessed as reduction in mitochondrial enzyme activity at 10 to 100 uM after 24 hrs by WST8 assay; type: cell-based
[3] = Apparent permeability of the compound after 4 hrs by PAMPA; type: ADME
[4] = molecular target: T1, Peroxisome proliferator-activated receptor alpha (Homo sapiens) (UniProt Q07869); assay: Agonist activity at recombinant human GAL4-DBD fused PPARalpha LBD expressed in COS7 cells at 10 uM after 24 hrs by luciferase reporter gene assay relative to 2-(4-tert-Butylphenoxy)-3-[4-[2-[(4-pyridin-2-ylbenzoyl)amino]ethoxy] phenyl]propionic acid; type: cell-based
T1 sequence (whole entry): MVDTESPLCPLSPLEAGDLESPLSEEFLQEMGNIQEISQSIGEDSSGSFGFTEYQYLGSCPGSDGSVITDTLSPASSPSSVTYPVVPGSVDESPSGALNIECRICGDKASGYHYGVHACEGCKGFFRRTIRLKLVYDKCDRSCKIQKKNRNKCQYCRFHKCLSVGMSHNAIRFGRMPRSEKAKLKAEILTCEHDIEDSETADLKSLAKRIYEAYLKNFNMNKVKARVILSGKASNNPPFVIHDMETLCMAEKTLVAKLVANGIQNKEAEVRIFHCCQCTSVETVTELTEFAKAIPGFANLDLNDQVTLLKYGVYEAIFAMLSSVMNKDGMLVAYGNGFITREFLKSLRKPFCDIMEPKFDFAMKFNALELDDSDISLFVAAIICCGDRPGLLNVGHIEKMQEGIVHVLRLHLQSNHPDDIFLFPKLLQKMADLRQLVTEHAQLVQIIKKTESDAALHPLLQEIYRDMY

Hepatocyte [5] = assay: Cytotoxicity against F344/DuCrlCrlj rat primary hepatocytes assessed as reduction in cell viability at 10 to 100 uM after 24 hrs by LDH release assay; type: cell-based
Rattus norvegicus [6] = assay: Antidiabetic activity in Zucker diabetic fatty rat assessed as reduction in plasma glucose level at 3 mg/kg, po administered once daily for 14 days measured on day 15 relative to control; type: functional; design: scale not given: the % may be the effect or the level left
[7] = Metabolic stability in cynomolgus monkey liver microsomes after 0.5 hrs; type: ADME, Macaca fascicularis, microsome; conditions: read-out: Stability
[8] = Metabolic stability in human liver microsomes after 0.5 hrs; type: ADME, microsome; conditions: read-out: Stability
[9] = Aqueous thermodynamic solubility of the compound in pH 6.8 solution up to 4 hrs by HPLC-UV analysis; type: physicochemical; conditions: read-out: Therm_solubility
[10] = Cmax in cynomolgus monkey at 3 mg/kg, po by LC-MS/MS; type: ADME, organism-based, Macaca fascicularis; design: dose 3 mg/kg, route oral; conditions: in vivo
[11] = AUClast in cynomolgus monkey at 3 mg/kg, po by LC-MS/MS; type: ADME, organism-based, Macaca fascicularis; design: dose 3 mg/kg, time 0 - last, route oral; conditions: in vivo
Rattus norvegicus [12] = assay: Toxicity in Zucker diabetic fatty rat assessed as body weight gain at 3 mg/kg, po administered once daily for 14 days relative to control; type: organism-based; conditions: in vivo, 336 h
[13] = molecular target: T2, Peroxisome proliferator-activated receptor gamma (Homo sapiens) (UniProt P37231); assay: Agonist activity at recombinant human GAL4-DBD fused PPARgamma LBD expressed in COS7 cells at 10 uM after 24 hrs by luciferase reporter gene assay relative to rosiglitazone; type: cell-based
T2 sequence (whole entry): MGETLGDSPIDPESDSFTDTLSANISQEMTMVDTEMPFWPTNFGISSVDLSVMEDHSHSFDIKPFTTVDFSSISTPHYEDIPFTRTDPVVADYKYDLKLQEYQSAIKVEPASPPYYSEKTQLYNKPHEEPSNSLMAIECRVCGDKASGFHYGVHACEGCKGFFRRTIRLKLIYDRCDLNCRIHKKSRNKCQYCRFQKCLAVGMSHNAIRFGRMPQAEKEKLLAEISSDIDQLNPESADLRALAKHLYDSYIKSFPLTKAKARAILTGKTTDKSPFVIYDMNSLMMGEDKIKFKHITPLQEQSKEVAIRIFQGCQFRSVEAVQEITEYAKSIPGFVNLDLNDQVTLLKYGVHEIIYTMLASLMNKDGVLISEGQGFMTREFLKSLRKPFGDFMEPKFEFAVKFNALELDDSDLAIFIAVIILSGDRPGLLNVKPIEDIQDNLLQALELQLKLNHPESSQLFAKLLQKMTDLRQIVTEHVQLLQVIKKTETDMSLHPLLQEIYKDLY

[14] = AUC (0 to 24 hrs) in Zucker diabetic fatty rat at 3 mg/kg, po dosed once daily for 14 days and followed by additional administration on day 15; type: ADME, organism-based; design: time < 24 hr, dose 3 mg/kg, route oral; conditions: in vivo
[15] = molecular target: T3, Peroxisome proliferator-activated receptor alpha (Homo sapiens, UniProt Q07869); assay: Agonist activity at recombinant human GAL4-DBD fused PPARalpha LBD expressed in COS7 cells after 24 hrs by luciferase reporter gene assay; type: cell-based
T3 sequence (Q07869 whole entry): T1 sequence (whole entry)

[16] = Tmax in cynomolgus monkey at 3 mg/kg, po by LC-MS/MS; type: ADME, organism-based, Macaca fascicularis; conditions: in vivo
[17] = Metabolic stability in rat liver microsomes after 0.5 hrs; type: ADME, microsome; conditions: read-out: Stability
[18] = Volume of distribution at steady state in cynomolgus monkey at 1 mg/kg, iv by LC-MS/MS; type: ADME, organism-based, Macaca fascicularis; conditions: in vivo, read-out: Vdss
[19] = Clearance in cynomolgus monkey at 1 mg/kg, iv by LC-MS/MS; type: ADME, organism-based, Macaca fascicularis; conditions: in vivo
[20] = Cmax in Zucker diabetic fatty rat at 3 mg/kg, po dosed once daily for 14 days and followed by additional administration on day 15; type: ADME, organism-based; design: dose 3 mg/kg, route oral; conditions: in vivo
[21] = Oral bioavailability in cynomolgus monkey at 3 mg/kg by LC-MS/MS; type: ADME, organism-based, Macaca fascicularis; conditions: in vivo
[22] = 1-octanol/PBS distribution co-efficient, log D of the compound at […] at pH 7.4 after 30 mins by HPLC-MS/MS method; type: physicochemical
[23] = Tmax in Zucker diabetic fatty rat at 3 mg/kg, po dosed once daily for 14 days and followed by additional administration on day 15; type: ADME, organism-based; conditions: in vivo
[24] = molecular target: T4, Peroxisome proliferator-activated receptor gamma (Homo sapiens, UniProt P37231); assay: Agonist activity at recombinant human GAL4-DBD fused PPARgamma LBD expressed in COS7 cells after 24 hrs by luciferase reporter gene assay; type: cell-based
T4 sequence (P37231 whole entry): T2 sequence (whole entry)

Hepatocyte [25] = assay: Cytotoxicity against F344/DuCrlCrlj rat primary hepatocytes assessed as reduction in mitochondrial enzyme activity at 100 uM after 24 hrs by WST8 assay relative to control; type: cell-based; design: scale not given: the % may be the effect or the level left
[26] = molecular target: T5, Peroxisome proliferator-activated receptor delta (Homo sapiens) (UniProt Q03181); assay: Agonist activity at PPARdelta (unknown origin) at 10 uM
T5 sequence (whole entry): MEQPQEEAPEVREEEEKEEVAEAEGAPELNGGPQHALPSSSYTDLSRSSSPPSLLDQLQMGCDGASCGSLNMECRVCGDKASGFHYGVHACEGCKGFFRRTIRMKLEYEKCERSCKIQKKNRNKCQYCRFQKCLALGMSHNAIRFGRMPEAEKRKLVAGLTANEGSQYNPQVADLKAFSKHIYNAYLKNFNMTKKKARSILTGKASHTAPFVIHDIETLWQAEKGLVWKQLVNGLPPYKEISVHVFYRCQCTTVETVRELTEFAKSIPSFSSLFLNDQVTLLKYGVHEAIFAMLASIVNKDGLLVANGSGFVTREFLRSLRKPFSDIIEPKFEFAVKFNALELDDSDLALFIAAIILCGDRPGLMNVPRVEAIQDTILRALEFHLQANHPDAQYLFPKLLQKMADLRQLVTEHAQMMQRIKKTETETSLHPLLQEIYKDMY

[27] = AUC (0 to 24 hrs) in Zucker diabetic fatty rat at 0.3 mg/kg, po administered once daily for 21 days followed by additional administration on day 22; type: ADME, organism-based; design: dose 0.3 mg/kg, time < 24 hr, route oral; conditions: in vivo
Rattus norvegicus [28] = assay: Antidiabetic activity in Zucker diabetic fatty rat assessed as reduction in plasma glucose level at 0.3 mg/kg, po administered once daily for 21 days measured on day 22 relative to control; type: functional; design: scale not given: the % may be the effect or the level left
[29] = Cmax in Zucker diabetic fatty rat at 0.3 mg/kg, po administered once daily for 21 days followed by additional administration on day 22; type: ADME, organism-based; design: dose 0.3 mg/kg, route oral; conditions: in vivo
[30] = Tmax in Zucker diabetic fatty rat at 0.3 mg/kg, po administered once daily for 21 days followed by additional administration on day 22; type: ADME, organism-based; conditions: in vivo
Rattus norvegicus [31] = assay: Antidiabetic activity in Zucker diabetic fatty rat assessed as reduction in plasma glucose level administered orally once daily for 21 days measured on day 22; type: functional, organism-based

half-life [1] | Papp at 4 h [3] | Emax [4] | remaining at 0.5 h [7] | remaining at 0.5 h [8] | Cmax [10] | AUC(0-t) [11] | Emax [13] | AUC at 24 h [14] | EC50 [15] | Tmax [16] | remaining at 0.5 h [17] | Vd [18] | clearance [19] | Cmax [20] | bioavailability [21] | logD at 0.5 h [22] | Tmax [23] | Compound | Activity (Hepatocyte [2]) | Activity (Rattus norvegicus [6]) | further results
8.84 h | 11.8 ×10⁻⁶ cm/s | 5% | 91% | 90% | 1190 ng/mL | 9940 ng·h/mL | 79% | 3910 ng·h/mL | > 10000 nM | 3.25 h | 87% | 0.5 L/kg | 1.66 mL/min/kg | 450 ng/mL | 31% | 1.3 | 2 h | Cn1c(COc2cccc(C(=O)O)c2)nc2ccc(Oc3ncc(Cl)cc3F)cc21 | Non-Toxic | 70.6% | Activity (Hepatocyte [5]): Non-Toxic; solubility thermodynamic at 4 h [9]: 10 µg/mL (≈ 23.4 µM); Activity (Rattus norvegicus [12]): 13.8%
– | – | 13% | – | – | – | – | – | – | – | – | – | – | – | – | – | – | – | Cc1cnc(Oc2ccc3nc(COc4cccc(C(=O)O)c4)n(C)c3c2)c(C)c1 [listing 1 of 2 here] | – | – | Activity [26]: inactive; Activity (Rattus norvegicus [31]): Dose-dependent effect
13.5 h | – | – | 80% | – | 2250 ng/mL | 23500 ng·h/mL | – | 2490 ng·h/mL | – | 5 h | 92% | 0.36 L/kg | 2.06 mL/min/kg | 180 ng/mL | 89% | 1.4 | 3.2 h | Cc1cnc(Oc2ccc3nc(COc4cccc(C(=O)O)c4)n(C)c3c2)c(C)c1 [listing 2 of 2 here] | – | 57% | –

The remaining lines, values behind:

Compound | half-life [1] | Papp at 4 h [3] | Emax [4] | remaining at 0.5 h [7] | remaining at 0.5 h [8] | Cmax [10] | AUC(0-t) [11] | Emax [13] | AUC at 24 h [14] | EC50 [15] | Tmax [16] | remaining at 0.5 h [17] | Vd [18] | clearance [19] | Cmax [20] | bioavailability [21] | logD at 0.5 h [22] | Tmax [23] | Activity (Hepatocyte [2]) | Activity (Rattus norvegicus [6]) | further results
Cn1c(COc2cccc(C(=O)O)c2)nc2ccc(Oc3ccc(Cl)c(F)c3)cc21 | 18.3 h | 38.5 ×10⁻⁶ cm/s | 32% | 100% | 100% | 4440 ng/mL | 40200 ng·h/mL | 82% | – | > 10000 nM | 1.67 h | – | 0.2 L/kg | 0.32 mL/min/kg | – | 25% | 2.7 | – | Dose-dependent effect | – | EC50 [24]: 68 nM; Activity (Hepatocyte [25]): 19%
Cn1c(COc2cccc(C(=O)O)c2)nc2ccc(Oc3ccc4c(c3)OCC4)nc21 | 13.3 h | 9.1 ×10⁻⁶ cm/s | 20% | 88% | 92% | 460 ng/mL | 4910 ng·h/mL | 89% | 3390 ng·h/mL | > 10000 nM | 1.5 h | 89% | 1.97 L/kg | 2.73 mL/min/kg | 630 ng/mL | 27% | 1.4 | 2 h | Non-Toxic | 55.3% | Activity (Hepatocyte [5]): Non-Toxic; EC50 [24]: 94 nM; Activity [26]: inactive; solubility thermodynamic at 4 h [9]: 17 µg/mL (≈ 40.7 µM); Activity (Rattus norvegicus [12]): 7.1%
Cc1cnc(Oc2ccc3nc(COc4cccc(C(=O)[O-])c4)n(C)c3c2)c(C)c1.Cc1cnc(Oc2ccc3nc(COc4cccc(C(=O)[O-])c4)n(C)c3c2)c(C)c1.[Ca+2] | – | – | – | – | – | – | – | – | – | – | – | – | – | – | – | – | – | – | – | – | AUC at 24 h [27]: 861 ng·h/mL; Activity (Rattus norvegicus [28]): 47%; Cmax [29]: 79.2 ng/mL; Tmax [30]: 1.8 h
Cn1c(COc2cccc(C(=O)O)c2)nc2cnc(Oc3ccc4c(c3)CCC4)cc21 | – | 16.5 ×10⁻⁶ cm/s | 22% | – | 100% | – | – | 55% | 2410 ng·h/mL | > 10000 nM | – | 81% | – | – | 410 ng/mL | – | 1.6 | 2 h | – | 1.3% | EC50 [24]: 20 nM; Activity [26]: inactive; solubility thermodynamic at 4 h [9]: 70 µg/mL (≈ 168 µM); Activity (Rattus norvegicus [12]): 6.3%
